In US8609644B2, “Amino derivatives of androstanes and androstenes as medicaments for cardiovascular disorders” (priority 2006, dated 2013):
Where a name gives a salt, the structure may show the parent alone.

Molecular target: Na+, K+-ATPase (Canis lupus familiaris, UniProt P50997)
Assay: biochemical
Design: species or system dog
Details: Na+, K+-ATPase Inhibition IC50

Row | Structure (SMILES) | IC50 [nM]
1 | CC12CCC3C(C(=C(F)F)CC4CC(=NOCCN)CCC43C)C1CCC2=O (mixture of isomers) [I-ep, (E,Z) 3-(2-Aminoethoxyimino)-7-difluoromethyleneandrostane-17-one hydrochloride] | 87
2 | CC1CC2C3CCC(=O)C3(C)CCC2C2(C)CCC(=NOCCN)CC12 (single isomer, unassigned) [I-az, (E,Z) 3-(2-Aminoethoxyimino)-6β-methylandrostan-17-one hydrochloride] | 6000
3 | C=CC1CC2C3CCC(=O)C3(C)CCC2C2(C)CCC(=NOCCN)CC12 (stereo not drawn) [I-al, (E,Z) 3-(2-Aminoethoxyimino)-6α-vinylandrostan-17-one hydrochloride] | 530
4 | CC12CCC3C(CC(=CC#N)C4CC(=NOCCN)CCC43C)C1CCC2=O (centres unmarked) [I-bi, (E) 3-(2-Aminoethoxyimino)-17-oxoandrostane-6-(E)-ylideneacetonitrile hydrochloride] | 1700
5 | C=C1C[C@@H]2[C@H](CC[C@]3(C)C(=O)CC[C@@H]23)[C@@]2(C)CC/C(=N\OCCCNC)C[C@H]12 [I-cj, (E) 3-(3-N-Methylaminopropoxyimino)-6-methyleneandrostan-17-one fumarate] | 380
6 | C#CC1CC2C3CCC(=O)C3(C)CCC2C2(C)CCC(=NOCCCNC)CC12 (stereo not drawn) [I-cq, (E,Z) 3-(3-N-Methylaminopropoxyimino)-6α-ethynylandrostan-17-one hydrochloride] | 1200

Same assay, conditions: dog kidney enzyme; read-out: Na+, K+-ATPase Inhibition IC50

Row | Structure (SMILES) | IC50 [nM]
7 | CNCCCON=C1CCC2(C)C(C1)C(CO)C(O)C1C3CCC(=O)C3(C)CCC12 (mixture of isomers) [I-ek, (E,Z) 3-(3-N-Methylaminopropoxyimino)-6α-hydroxymethyl-7α-hydroxyandrostane-17-one hydrochloride] | 320
8 | CC12CCC3C(CC(O[N+](=O)[O-])C4CC(=NOCCN)CCC43C)C1CCC2=O (single isomer, unassigned) [I-aa, (E,Z) 3-(2-Aminoethoxyimino)-17-oxoandrostane-6α-yl nitrate fumarate] | 330
9 | CC12CCC3C(CC(O[N+](=O)[O-])C4CC(=NOCCN)CCC43C)C1CCC2=O (single isomer, unassigned) [I-ab, (E,Z) 3-(2-Aminoethoxyimino)-17-oxoandrostane-6β-yl nitrate fumarate] | 2900
10 | CC12CCC3C(CC(CO)C4CC(=NOCCN)CCC43C)C1CCC2=O (single isomer, unassigned) [I-aj, (E,Z) 3-(2-Aminoethoxyimino)-6β-hydroxymethylandrostan-17-one hydrochloride] | 1600
11 | CC(=O)OCC1CC2C3CCC(=O)C3(C)CCC2C2(C)CCC(=NOCCN)CC12 (stereo not drawn) [I-ap, (E,Z) 3-(2-Aminoethoxyimino)-6α-acetoxymethylandrostan-17-one fumarate] | 3000
12 | COC[C@H]1C[C@@H]2[C@H](CC[C@]3(C)C(=O)CC[C@@H]23)[C@@]2(C)CC/C(=N\OCCN)CC12 (stereo partly drawn) [I-aq, (E) 3-(2-Aminoethoxyimino)-6α-methoxymethylandrostan-17-one hydrochloride] | 500
13 | C=CCON=C1CC2C3CCC(=O)C3(C)CCC2C2(C)CCC(=NOCCN)CC12 (centres unmarked) [I-ay, (E,Z)-3-(2-Aminoethoxyimino)-6-(E)-allyloxyiminoandrostan-17-one fumarate] | 43000
14 | CNCCCOC1CCC2(C)C(C1)C(CO)CC1C3CCC(=O)C3(C)CCC12 (stereo not drawn) [I-du, 3β-(3-N-Methylaminopropoxy)-6α-hydroxymethylandrostane-17-one fumarate] | 1100
15 | C=C1C[C@@H]2[C@H](CC[C@]3(C)C(=O)CC[C@@H]23)[C@@]2(C)CC[C@@H](SCCCN)CC12 (stereo partly drawn) [I-dz, 3α-(3-Aminopropylthio)-6-methyleneandrostane-17-one fumarate] | 1500
16 | C=C1C[C@@H]2[C@H](CC[C@]3(C)C(=O)CC[C@@H]23)[C@@]2(C)CC[C@@H](SCCCNC)C[C@H]12 [I-ea, 3α-(3-N-Methylaminopropylthio)-6-methyleneandrostane-17-one fumarate] | 2800

Same assay, conditions: read-out: Na+, K+-ATPase Inhibition IC50

Row | Structure (SMILES) | IC50 [nM]
17 | C=C1C[C@@H]2[C@H](CC[C@]3(C)C(=O)CC[C@@H]23)[C@@]2(C)CCC(=NOCCN)CC12 (some centres unmarked) [I-ah, (E,Z) 3-(2-Aminoethoxyimino)-6-methyleneandrostan-17-one hydrochloride] | 42
18 | C[C@]12CCC(=NOCCN)CC1[C@@H](C=NO)C[C@@H]1[C@@H]2CC[C@]2(C)C(=O)CC[C@@H]12 (stereo partly drawn) [I-an, 3-(E,Z)-(2-Aminoethoxyimino)-17-oxoandrostane-6α-carbaldehyde (E,Z)-oxime fumarate] | 390
19 | C[C@]12CC/C(=N/OCCN)CC1[C@@H](C(N)=O)C[C@@H]1[C@@H]2CC[C@]2(C)C(=O)CC[C@@H]12 (stereo partly drawn) [I-as, (Z) 3-(2-Aminoethoxyimino)-6α-carbamoylandrostan-17-one hydrochloride] | 630
20 | C[C@]12CCC(=NOCCN)CC1C1(CO1)C[C@@H]1[C@@H]2CC[C@]2(C)C(=O)CC[C@@H]12 (stereo partly drawn) [I-bc, (E,Z)-3-(2-Aminoethoxyimino)androstane-6(R)-(spiro-2′-oxirane)-17-one hydrochloride] | 910
21 | C[C@]12CCC(=NOCCN)CC1C1(CC1)C[C@@H]1[C@@H]2CC[C@]2(C)C(=O)CC[C@@H]12 (some centres unmarked) [I-bl, E,Z) 3-(2-Aminoethoxyimino)-6-(spirocyclopropane)androstane-17-one hydrochloride] | 850
22 | CC(=O)NC[C@H]1C[C@@H]2[C@H](CC[C@]3(C)C(=O)CC[C@@H]23)[C@@]2(C)CCC(=NOCCN)CC12 (stereo partly drawn) [I-bm, (E,Z) 3-(2-Aminoethoxyimino)-6α-acetamidomethylandrostan-17-one hydrochloride] | 3600
23 | C[C@]12CCC(=NOCCN)CC1C[C@@H](O)[C@@H]1[C@@H]2CC[C@]2(C)C(=O)CC[C@@H]12 (stereo partly drawn) [I-bv, (E,Z) 3-(2-Aminoethoxyimino)-7α-hydroxyandrostane-17-one fumarate] | 520
24 | C[C@]12CCC(=NOCCN)CC1C[C@@H](NC=O)[C@@H]1[C@@H]2CC[C@]2(C)C(=O)CC[C@@H]12 (stereo partly drawn) [I-bw, (E,Z)-3-(2-Aminoethoxyimino)-7α-formamidoandrostane-3,17-dione hydrochloride] | 6000
25 | C[C@]12CCC(=NOCCN)CC1C[C@H](CO)[C@@H]1[C@@H]2CC[C@]2(C)C(=O)CC[C@@H]12 (stereo partly drawn) [I-ca, (E,Z) 3-(2-Aminoethoxyimino)-7β-hydroxymethylandrostane-17-one hydrochloride] | 910
26 | CNCCON=C1CC[C@@]2(C)C(C1)C(=NOC)C[C@@H]1[C@@H]2CC[C@]2(C)C(=O)CC[C@@H]12 (some centres unmarked) [I-ce, (E,Z) 3-(2-N-Methylaminoethoxyimino)-6-(E)-methoxyiminoandrostan-17-one hydrochloride] | 650
27 | CNCCCON=C1CC[C@]2(C)[C@H]3CC[C@]4(C)C(=O)CC[C@H]4[C@@H]3CC(=NOC)[C@@]2(O)C1 [I-cs, (E,Z) 3-(3-N-Methylaminopropoxyimino)-5α-hydroxy-6-(E)-methoxyimino-androstane-17-one fumarate] | 1100
28 | C[C@]12CC[C@H](/C=C\CCN)CC1/C(=N/O)C[C@@H]1[C@@H]2CC[C@]2(C)C(=O)CC[C@@H]12 (stereo partly drawn) [I-de, 3β-(4-Aminobut-1-(Z)-enyl)-6-(E)-hydroxyiminoandrostane-17-one fumarate] | 1200
29 | C[C@]12CC[C@@H](/C=C\CCCCN)CC1/C(=N/O)C[C@@H]1[C@@H]2CC[C@]2(C)C(=O)CC[C@@H]12 (stereo partly drawn) [I-dj, 3α-(6-Aminohex-1-(Z)-enyl)-6-(E)-hydroxyiminoandrostan-17-one fumarate] | 1300
